# Target: CDK2/Cyclin E1 (Homo sapiens (Human), UniProt P24941)
# Experiment: CDK2/Cyclin E1 HTRF enzyme activity assay
# Format: biochemical
# Details: 1 mM ATP; CDK2/Cyclin E1 0.25 nM; 60 minutes at room temperature
# Description: Example A. CDK2/Cyclin E1 HTRF Enzyme Activity Assay
# CDK2/Cyclin E1 enzyme activity assays utilize full-length human CDK2 co-expressed as N-terminal GST-tagged protein with FLAG-Cyclin E1 in a baculovirus expression system (Carna Product Number 04-165). Assays were conducted in white 384-well polystyrene plates in a final reaction volume of 8 μL. CDK2/Cyclin E1 (0.25 nM) was incubated with the compounds of the Examples (40 nL serially diluted in DMSO) in the presence of ATP (50 μM or 1 mM) and 50 nM ULight™-labeled eIF4E-binding protein 1 (THR37/46) peptide (PerkinElmer) in assay buffer (containing 50 mM HEPES pH 7.5, 1 mM EGTA, 10 mM MgCl2, 2 mM DTT, 0.05 mg/mL BSA, and 0.01% Tween 20) for 60 minutes at room temperature. The reactions were stopped by the addition of EDTA and Europium-labeled anti-phospho-4E-BP1 antibody (PerkinElmer), for a final concentration of 15 mM and 1.5 nM, respectively. HTRF signals were read after 1 hour at room temperature on a PHERAstar FS plate reader (BMG Labtech). Data was analyzed with IDBS XLFit and GraphPad Prism 5.0 software using a three or four parameter dose response curve to determine IC50 for each compound.
row,Structure (SMILES),IC50
1,"C[C@@H]1CN(S(=O)(=O)c2cnn(C)c2)CC[C@@H]1Nc1nc2cnc(-c3cn[nH]c3)c(OC3CCC3)n2n1 [Example 94, 5-Cyclobutoxy-N-((3R,4S)-3-methyl-1-((1-methyl-1H-pyrazol-4-yl)sulfonyl)piperidin-4-yl)-6-(1H-pyrazol-4-yl)-[1,2,4]triazolo[1,5-a]pyrazin-2-amine]",≤ 20 nM
2,"CC1CN(S(C)(=O)=O)CCC1Nc1nc2c(N3CCCCC3)c(-c3cn[nH]c3)ncn2n1 (stereo not drawn) [Example 50, N-(3-Methyl-1-(methylsulfonyl)piperidin-4-yl)-8-(piperidin-1-yl)-7-(1H-pyrazol-4-yl)-[1,2,4]triazolo[1,5-c]pyrimidin-2-amine]",≤ 20 nM
3,"CCOc1c(-c2cn[nH]c2)ncn2nc(NC3CCN(S(C)(=O)=O)CC3)nc12 [Example 32, 8-Ethoxy-N-(1-(methylsulfonyl)piperidin-4-yl)-7-(1H-pyrazol-4-yl)-[1,2,4]triazolo[1,5-c]pyrimidin-2-amine]",≤ 20 nM
4,"CCOc1c(-c2c[nH]nc2C)ccn2nc(NC3CCN(S(C)(=O)=O)CC3)nc12 [Example 17, 8-ethoxy-7-(3-methyl-1H-pyrazol-4-yl)-N-(1-(methylsulfonyl)piperidin-4-yl)-[1,2,4]triazolo[1,5-a]pyridin-2-amine]",≤ 20 nM
5,"CC1CC(Oc2c(-c3cn[nH]c3)ncc3nc(N[C@H]4CCN(S(C)(=O)=O)C[C@H]4C)nn23)C1 (stereo partly drawn) [Example 107, N-((3R,4S)-3-Methyl-1-(methylsulfonyl)piperidin-4-yl)-5-(3-methylcyclobutoxy)-6-(1H-pyrazol-4-yl)-[1,2,4]triazolo[1,5-a]pyrazin-2-amine]",≤ 20 nM
6,"CS(=O)(=O)N1CCC(Nc2nc3c(-c4ccc(C#N)c(F)c4)c(-c4cn[nH]c4)ncn3n2)CC1 [Example 36, 2-fluoro-4-(2-((1-(methylsulfonyl)piperidin-4-yl)amino)-7-(1H-pyrazol-4-yl)-[1,2,4]triazolo[1,5-c]pyrimidin-8-yl)benzonitrile]",≤ 20 nM
7,"CCCCOc1c(-c2cn[nH]c2)ncc2nc(NC3CCN(S(C)(=O)=O)CC3)nn12 [Example 106, 5-Butoxy-N-(1-(methylsulfonyl)piperidin-4-yl)-6-(1H-pyrazol-4-yl)-[1,2,4]triazolo[1,5-a]pyrazin-2-amine]",≤ 20 nM
8,"C[C@@H]1CN(S(C)(=O)=O)CC[C@@H]1Nc1nc2cnc(-c3cn[nH]c3)c(OCC3CC3)n2n1 [Example 115, 5-(Cyclopropylmethoxy)-N-((3R,4S)-3-methyl-1-(methylsulfonyl)piperidin-4-yl)-6-(1H-pyrazol-4-yl)-[1,2,4]triazolo[1,5-a]pyrazin-2-amine]",≤ 20 nM
9,"C[C@@H]1CN(S(C)(=O)=O)CC[C@@H]1Nc1nc2cnc(-c3cn[nH]c3)c(N3CCCCC3)n2n1 [Example 125, N-((3R,4S)-3-Methyl-1-(methylsulfonyl)piperidin-4-yl)-5-(piperidin-1-yl)-6-(1H-pyrazol-4-yl)-[1,2,4]triazolo[1,5-a]pyrazin-2-amine]",≤ 20 nM
10,"C[C@@H]1CN(S(=O)(=O)C2CC2)CC[C@@H]1Nc1nc2cnc(-c3cn[nH]c3)c(OC3CCOCC3)n2n1 [Example 92, N-((3R,4S)-1-(Cyclopropylsulfonyl)-3-methylpiperidin-4-yl)-6-(1H-pyrazol-4-yl)-5-((tetrahydro-2H-pyran-4-yl)oxy)-[1,2,4]triazolo[1,5-a]pyrazin-2-amine]",≤ 20 nM
11,"C[C@@H]1CN(S(C)(=O)=O)CC[C@@H]1Nc1nc2ccc(-c3cn[nH]c3)c(OC3CC3)n2n1 [Example 74, 5-Cyclopropoxy-N-((3R,4S)-3-methyl-1-(methylsulfonyl)piperidin-4-yl)-6-(1H-pyrazol-4-yl)-[1,2,4]triazolo[1,5-a]pyridin-2-amine]",≤ 20 nM
12,"CS(=O)(=O)N1CCC(Nc2nc3ccc(-c4cn[nH]c4)c(OCC(F)(F)C(F)F)n3n2)CC1 [Example 81, N-(1-(Methylsulfonyl)piperidin-4-yl)-6-(1H-pyrazol-4-yl)-5-(2,2,3,3-tetrafluoropropoxy)-[1,2,4]triazolo[1,5-a]pyridin-2-amine]",≤ 20 nM
13,"CCS(=O)(=O)N1CC[C@H](Nc2nc3cnc(-c4cn[nH]c4)c(OC4CCC4)n3n2)[C@H](C)C1 [Example 93, 5-Cyclobutoxy-N-((3R,4S)-1-(ethylsulfonyl)-3-methylpiperidin-4-yl)-6-(1H-pyrazol-4-yl)-[1,2,4]triazolo[1,5-a]pyrazin-2-amine]",≤ 20 nM
14,"CC(C)COc1c(-c2cn[nH]c2)ncc2nc(N[C@H]3CCN(S(C)(=O)=O)C[C@H]3C)nn12 [Example 101, 5-Isobutoxy-N-((3R,4S)-3-methyl-1-(methylsulfonyl)piperidin-4-yl)-6-(1H-pyrazol-4-yl)-[1,2,4]triazolo[1,5-a]pyrazin-2-amine]",≤ 20 nM
15,"C[C@@H]1CN(S(C)(=O)=O)CC[C@@H]1Nc1nc2cnc(-c3cn[nH]c3)c(OC3CC(C(F)F)C3)n2n1 (stereo partly drawn) [Example 108, 5-(3-(Difluoromethyl)cyclobutoxy)-N-((3R,4S)-3-methyl-1-(methylsulfonyl)piperidin-4-yl)-6-(1H-pyrazol-4-yl)-[1,2,4]triazolo[1,5-a]pyrazin-2-amine]",≤ 20 nM

# Next, values leading:
row,IC50,Structure (SMILES)
1,≤ 20 nM,"C[C@@H]1CN(S(C)(=O)=O)CC[C@@H]1Nc1nc2cnc(-c3cn[nH]c3)c(OCC3(C(F)(F)F)CCC3)n2n1 [Example 114, N-((3R,4S)-3-Methyl-1-(methylsulfonyl)piperidin-4-yl)-6-(1H-pyrazol-4-yl)-5-((1-(trifluoromethyl)cyclobutyl)methoxy)-[1,2,4]triazolo[1,5-a]pyrazin-2-amine]"
2,≤ 20 nM,"CC(C)Oc1c(-c2cn[nH]c2)ccc2nc(N[C@H]3CCN(S(C)(=O)=O)C[C@H]3C)nn12 [Example 68, 5-Isopropoxy-N-((3R,4S)-3-methyl-1-(methylsulfonyl)piperidin-4-yl)-6-(1H-pyrazol-4-yl)-[1,2,4]triazolo[1,5-a]pyridin-2-amine]"
3,≤ 20 nM,"CCOc1c(-c2cn[nH]c2)ccn2nc(N[C@H]3CCN(S(=O)(=O)CCN4CC[C@@H](O)C4)C[C@H]3C)nc12 [Example 19, (R)-1-(2-(((3R,4S)-4-((8-ethoxy-7-(1H-pyrazol-4-yl)-[1,2,4]triazolo[1,5-a]pyridin-2-yl)amino)-3-methylpiperidin-1-yl)sulfonyl)ethyl)pyrrolidin-3-ol]"
4,≤ 20 nM,"CCOc1c(-c2cn[nH]c2)ccn2nc(N[C@H]3CCN(S(=O)(=O)CCCN4CCCCC4)C[C@H]3C)nc12 [Example 27, 8-ethoxy-N-((3R,4S)-3-methyl-1-((3-(piperidin-1-yl)propyl)sulfonyl)piperidin-4-yl)-7-(1H-pyrazol-4-yl)-[1,2,4]triazolo[1,5-a]pyridin-2-amine]"
5,≤ 20 nM,"CC(C)Oc1c(-c2cn[nH]c2)ccc2nc(N[C@H]3CCN(S(=O)(=O)C4CC4)C[C@H]3C)nn12 [Example 97, N-((3R,4S)-1-(Cyclopropylsulfonyl)-3-methylpiperidin-4-yl)-5-isopropoxy-6-(1H-pyrazol-4-yl)-[1,2,4]triazolo[1,5-a]pyridin-2-amine]"
6,≤ 20 nM,"C[C@@H]1CN(S(C)(=O)=O)CC[C@@H]1Nc1nc2c(OC3CCOC3)c(-c3cn[nH]c3)ccn2n1 (stereo partly drawn) [Example 40, N-((3R,4S)-3-methyl-1-(methylsulfonyl)piperidin-4-yl)-7-(1H-pyrazol-4-yl)-8-((tetrahydrofuran-3-yl)oxy)-[1,2,4]triazolo[1,5-a]pyridin-2-amine]"
7,≤ 20 nM,"CC(C)Oc1c(-c2cn[nH]c2)ncn2nc(N[C@H]3CCN(S(C)(=O)=O)C[C@H]3C)nc12 [Example 33, 8-isopropoxy-N-((3R,4S)-3-methyl-1-(methylsulfonyl)piperidin-4-yl)-7-(1H-pyrazol-4-yl)-[1,2,4]triazolo[1,5-c]pyrimidin-2-amine]"
8,≤ 20 nM,"CCS(=O)(=O)N1CC[C@H](Nc2nc3cnc(-c4cn[nH]c4)c(OC4CCOCC4)n3n2)[C@H](C)C1 [Example 91, N-((3R,4S)-1-(Ethylsulfonyl)-3-methylpiperidin-4-yl)-6-(1H-pyrazol-4-yl)-5-((tetrahydro-2H-pyran-4-yl)oxy)-[1,2,4]triazolo[1,5-a]pyrazin-2-amine]"
9,≤ 20 nM,"CS(=O)(=O)N1CCC(Nc2nc3cnc(-c4cn[nH]c4)c(OCC4(C(F)(F)F)CCC4)n3n2)CC1 [Example 120, N-(1-(Methylsulfonyl)piperidin-4-yl)-6-(1H-pyrazol-4-yl)-5-((1-(trifluoromethyl)cyclobutyl)methoxy)-[1,2,4]triazolo[1,5-a]pyrazin-2-amine]"
10,≤ 20 nM,"CS(=O)(=O)N1CCC(Nc2nc3cc(-c4cn[nH]c4)ccn3n2)CC1 [Example 1, N-(1-(methylsulfonyl)piperidin-4-yl)-7-(1H-pyrazol-4-yl)-[1.2.4]triazolo[1,5-a]pyridin-2-amine]"
11,≤ 20 nM,"CC1COCCC1Oc1c(-c2cn[nH]c2)ncc2nc(N[C@H]3CCN(S(C)(=O)=O)C[C@H]3C)nn12 (stereo partly drawn) [Example 111, N-((3R,4S)-3-Methyl-1-(methylsulfonyl)piperidin-4-yl)-5-((3-methyltetrahydro-2H-pyran-4-yl)oxy)-6-(1H-pyrazol-4-yl)-[1,2,4]triazolo[1,5-a]pyrazin-2-amine]"
12,≤ 20 nM,"CCOc1c(-c2cn[nH]c2)ncc2nc(NC3CCN(S(C)(=O)=O)CC3)nn12 [Example 122, 5-Ethoxy-N-(1-(methylsulfonyl)piperidin-4-yl)-6-(1H-pyrazol-4-yl)-[1,2,4]triazolo[1,5-a]pyrazin-2-amine]"
